We go through ten compounds from patent publication US5939437A, “CCK and gastrin receptor ligands” (James Black Foundation Limited, priority 1994, dated 1999).

The target of test [1] is T1, CCKA (Cavia porcellus, UniProt Q63931).
T1 construct: The pancreatata were homogenised in 40 ml ice-cold HEPES buffer; from tissue; host or cells: pancreas membranes of male Dunkin Hartley guinea-pigs
T1 sequence (Q63931 1-430): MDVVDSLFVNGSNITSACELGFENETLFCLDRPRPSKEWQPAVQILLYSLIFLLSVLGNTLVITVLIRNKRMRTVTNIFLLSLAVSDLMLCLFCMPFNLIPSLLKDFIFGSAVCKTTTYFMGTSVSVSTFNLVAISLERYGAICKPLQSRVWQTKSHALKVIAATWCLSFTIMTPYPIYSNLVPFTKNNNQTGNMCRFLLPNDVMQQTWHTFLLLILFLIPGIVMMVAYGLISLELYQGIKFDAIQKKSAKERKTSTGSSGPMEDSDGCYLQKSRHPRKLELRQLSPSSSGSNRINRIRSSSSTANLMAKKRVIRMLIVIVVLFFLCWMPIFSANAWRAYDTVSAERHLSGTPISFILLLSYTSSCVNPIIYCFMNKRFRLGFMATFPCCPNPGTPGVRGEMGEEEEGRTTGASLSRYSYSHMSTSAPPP
The experiment in a line: CCKA binding assay (guinea-pig pancreas membranes). The following applies: [125I]-CCK8(S) 200 pM, 0.375 μM PD134,308 present, 150 minutes at 21±3° C.; for Ki: read-out: CCKA pKi (converted). As for the experimental part: The compounds of the examples were also tested in a CCKA binding assay as follows:
The pancreatata were removed from male guinea-pigs (200-300 g; Dunkin Hartley) and placed in ice-cold HEPES buffer (pH 7.2@21 ±3° C.). The pancreatata were homogenised in 40 ml ice-cold HEPES buffer using a polytron (Brinkman, PT10, setting 10) 4×1 second. The homogenate was centrifuged at 39,800 g for 15 min at 4° C. The supernatant was discarded and the pellet re-suspended using a Teflon-in-glass homogeniser in 20 volumes of fresh buffer and re-centrifuged as above. The final pellet was re-suspended using a Teflon-in-glass homogeniser to a tissue concentration of 1 mg.ml^-1 (original wet weight), and filtered through 500 μm pore-size Nytex mesh.
The membranes (400 μl; containing 0.375 μM PD134,308) are incubated for 150 minutes at 21±3° C. in a final volume of 0.5 ml with HEPES buffer containing [^125 I]-CCK8 (S) (50 μl; 200 pM) and competing compound. Total and non-specific binding of [^125 I]-CCK^8 (S) are defined using 50 μl of buffer and 50 μl of 100 nM L-364,718respectively. The assay is terminated by rapid filtration through pre-soaked Whatman GF/B filters using a Brandell Cell Harvester. The filters were washed (3×3 ml) with ice-cold 50 mM Tris HCl (pH 7.4 at 4° C. and bound radioactivity is determined by counting (1 min) in a gamma counter.

Test [2] concerns the target T2, CCKB (Mus musculus, UniProt P56481).
T2 construct: The cortex was dissected, weighed and homogenised in 40 ml ice-cold buffer; from tissue; host or cells: cerebral cortex membranes of male CD1 mice (Charles River)
T2 sequence (P56481 1-453): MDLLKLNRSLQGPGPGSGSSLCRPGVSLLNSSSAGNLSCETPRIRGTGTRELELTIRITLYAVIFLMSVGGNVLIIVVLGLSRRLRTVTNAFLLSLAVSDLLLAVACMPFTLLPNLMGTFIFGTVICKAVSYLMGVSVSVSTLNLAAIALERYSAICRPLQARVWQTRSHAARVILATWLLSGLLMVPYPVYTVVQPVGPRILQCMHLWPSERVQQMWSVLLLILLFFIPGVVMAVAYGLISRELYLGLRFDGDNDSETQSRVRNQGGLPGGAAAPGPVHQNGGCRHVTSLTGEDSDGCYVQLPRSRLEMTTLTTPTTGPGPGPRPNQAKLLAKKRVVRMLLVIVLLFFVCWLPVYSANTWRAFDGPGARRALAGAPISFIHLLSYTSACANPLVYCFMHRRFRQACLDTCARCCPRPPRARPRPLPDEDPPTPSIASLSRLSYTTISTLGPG
The experiment in a line: radioligand binding assay at the CCKB (CCK8 [sic]) receptor in mouse cortical membranes. To be noted: [125I]-CCK8S 200 pM, 150 min at 21±3° C.; for Ki: read-out: CCKB pKi (converted). As to the method:
The compounds of the examples were tested for binding at the CCK8 receptor in mouse cortical membranes by means of a radioligand binding assay. The procedure was as follows: The whole brains from male mice (CD1 22-25 g; Charles River) were removed and placed in ice-cold buffer (pH7.2@21±3° C.) of the following composition (mM); 10 HEPES, 130 NaCl, 4.7 KCl, 5 MgCl2, 1 EDTA and containing 0.25 g.1^-1 bacitracin. The cortex was dissected, weighed and homogenised in 40 ml ice-cold buffer using a Teflon-in-glass homogeniser. The homogenate was centrifuged at 39,800 g for 20 min at 4° C., the supernatant discarded and the pellet resuspended by homogenisation in fresh buffer. The homogenate was recentrifuged (39,800 g; 20 min@4° C.) and the final pellet was resuspended in HEPES buffer to give a tissue concentration of 2 mg.ml^-1 (original wet weight). The membranes ([…]) were incubated for 150 min at 21±3° C. in a final volume of 0.5 ml with HEPES buffer containing [^25 I]-CCK8S (0.05 ml; 200 pM NEN 2200 Ci.mmol^-1) and competing compound. Total and non-specific binding of [^125 I]-CCK8S were defined using 0.05 ml of buffer and 0.05 ml of […] L-365,260, respectively. The assay was terminated by rapid filtration through pre-soaked Whatman GF/B 35 filters using a Brandell Cell harvester. The filters were washed (3×3 ml) with ice-cold 5 mM Tris-HCl (pH7.4@4° C.) and bound radioactivity determined by counting (1 min.) in a gamma-counter.

Test [3] has as its target T3, Gastrin (Rattus norvegicus, UniProt P30553).
T3 construct: The stomach was excised and flushed with ca. 1 ml unbuffered physiological saline solution; from tissue; host or cells: isolated whole stomach of immature rats (33-50 g, ca. 21 days old)
T3 sequence (P30553 1-452): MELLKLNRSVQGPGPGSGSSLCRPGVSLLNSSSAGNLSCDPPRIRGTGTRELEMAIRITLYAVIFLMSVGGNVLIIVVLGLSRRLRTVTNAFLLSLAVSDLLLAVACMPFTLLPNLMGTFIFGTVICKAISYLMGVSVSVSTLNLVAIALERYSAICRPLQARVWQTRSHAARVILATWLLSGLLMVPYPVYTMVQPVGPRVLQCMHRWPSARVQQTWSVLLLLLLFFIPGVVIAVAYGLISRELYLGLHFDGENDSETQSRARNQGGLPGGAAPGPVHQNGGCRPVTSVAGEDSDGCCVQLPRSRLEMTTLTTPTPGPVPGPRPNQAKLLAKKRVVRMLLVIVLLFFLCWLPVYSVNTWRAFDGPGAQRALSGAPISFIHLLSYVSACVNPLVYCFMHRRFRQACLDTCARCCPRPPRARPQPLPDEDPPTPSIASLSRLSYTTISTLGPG
The test is described as follows: gastrin antagonist activity in an immature rat stomach assay (pentagastrin-stimulated acid secretion, isolated stomach). The following applies: cumulative pentagastrin dose-response curves, 60 min after drug; for Kb: read-out: Gastrin pKB (converted). As for the experimental part: The compounds of the examples were also tested for gastrin antagonist activity in an immature rat stomach assay. The procedure was follows:
The oesophagus of immature rats (33-50 g, ca. 21 days old) was ligated at the level of the cardiac sphincter and the duodenal sphincter was cannulated. The stomach was excised and flushed with ca. 1 ml unbuffered physiological saline solution. The fundus was punctured and cannulated. A further 4-5 ml of unbuffered solution was flushed through the stomach to ensure the preparation was not leaking. The stomach was lowered into a jacketed organ bath containing 40 ml of buffered solution containing 3×10^-8 M5methylfurmethide, maintained at 37° and gassed vigorously with 95% O2 /5% CO2. The stomach was continuously perfused at a rate of 1 ml min^-1 with unbuffered solution gassed with 100% O2 with the perfusate passing over an internally referenced pH-electrode fixed 12 cm above the stomach.
After 120 min of stabilisation the drugs were added directly to the serosal solution in the organ bath and after a further 60 min cumulative pentagastrin dose-response curves were started. Changes in acid secretion were monitored and the curves analysed according to Black et. al., Br. J. Pharmacol., 1985, 86, 581.

Take `O=C(O)c1cc(NC(=O)[C@H](Cc2ccccc2)NC(=O)c2ccccc2C(=O)NCc2cccc3ccccc23)cc(C(=O)O)c1` [Example 5, (1R-(3,5-dicarboxyphenylaminocarbonyl)-2-phenylethylaminocarbonyl)-2-(1-naphthalenemethylaminocarbonyl)-benzene]: the “CCKA pKi” value in test [1] turned out to be 7.0. Further, the “CCKB pKi” value in test [2] is 6.3.
For `O=C(Cc1ccccc1C(=O)NCC12CC3CC(CC(C3)C1)C2)N[C@@H](Cc1ccccc1)C(=O)Nc1cc(C(=O)O)cc(C(=O)O)c1` [Example 8, (1S-(3,5-dicarboxyphenylaminocarbonyl)-2-phenylethylaminocarbonylmethyl)-2-(1-adamantanemethylamino-carbonyl)benzene], the values for the Ki in test [1] and in test [2] were 3160 nM and 158 nM, respectively.
For `O=C(Cc1ccccc1C(=O)N[C@@H](Cc1ccccc1)C(=O)Nc1cc(C(=O)O)cc(C(=O)O)c1)NCC12CC3CC(CC(C3)C1)C2` [Example 9, (1S-(3,5-dicarboxyphenylaminocarbonyl)-2-phenylethylaminocarbonyl)-2-(1-adamantanemethylaminocarbonyl-methyl)benzene], the Ki in test [1] was 3160 nM; in test [2], 251 nM.
For the compound `COc1ccc(C(=O)N[C@@H](Cc2ccccc2)C(=O)Nc2cc(C(=O)O)cc(C(=O)O)c2)c(C(=O)NCC23CC4CC(CC(C4)C2)C3)c1` [Example 18, 1-(1S-(3,5-dicarboxyphenylamino-carbonyl)-2-phenylethylaminocarbonyl)-2-(1-adamantanemethyl-aminocarbonyl)-4-methoxybenzene], the Kb in test [3] is 31.6 nM. The Ki in test [2] is 25.1 nM.
Consider `O=C(O)c1cc(NC(=O)[C@H](Cc2ccccc2)NC(=O)c2c(F)ccc(F)c2C(=O)NCC23CC4CC(CC(C4)C2)C3)cc(C(=O)O)c1` [Example 22, 1-(1S-(3,5-dicarboxyphenylamino-carbonyl)-2-phenylethylaminocarbonyl)-2-(1-adamantanemethyl-aminocarbonyl)-3,6-difluorobenzene], for which the “Gastrin pKB” value in test [3] is reported as 7.5. Further, the “CCKB pKi” value in test [2] is recorded as 7.3.
On to `O=C(O)c1cc(NC(=O)[C@H](Cc2ccccc2)NC(=O)c2cc(O)ccc2C(=O)NCC23CC4CC(CC(C4)C2)C3)cc(C(=O)O)c1` [Example 23, 1-(1S-(3,5-dicarboxyphenylamino-carbonyl)-2-phenylethylaminocarbonyl)-2-(1-adamantanemethylamino-carbonyl)-5-hydroxybenzene], for which the Kb in test [3] was 126 nM. Besides, in test [2], the Ki is 316 nM.
In the same order, the values of `CNc1ccc(C(=O)N[C@@H](Cc2ccccc2)C(=O)Nc2cc(C(=O)O)cc(C(=O)O)c2)c(C(=O)NCC23CC4CC(CC(C4)C2)C3)c1` [Example 24, 1-(1S-(3,5-dicarboxyphenylamino-carbonyl)-2-phenylethylaminocarbonyl)-2-(1-adamantanemethyl-aminocarbonyl)-4-methylaminobenzene] are 5.01 nM and 7.94 nM.
Taken in the same sequence, the figures for `CN(C)c1ccc(C(=O)N[C@@H](Cc2ccccc2)C(=O)Nc2cc(C(=O)O)cc(C(=O)O)c2)c(C(=O)NCC23CC4CC(CC(C4)C2)C3)c1` [Example 25, 1-(1S-(3,5-dicarboxyphenylamino-carbonyl)-2-phenylethylaminocarbonyl)-2-(l-adamantanemethyl-aminocarbonyl)-4-dimethylaminobenzene] were 2.51 nM and 1.58 nM.
Take `COc1ccc(C(=O)N[C@@H](Cc2ccccc2F)C(=O)Nc2cc(C(=O)O)cc(C(=O)O)c2)c(C(=O)NCC23CC4CC(CC(C4)C2)C3)c1` [Example 28, 1-(1S-(3,5-dicarboxyphenylamino-carbonyl)-2-(2-fluorophenyl)ethylaminocarbonyl)-2-(1-adamantane-methylaminocarbonyl)-4-methoxybenzene]: in test [3], the Kb was 12.6 nM. The Ki in test [2] is 15.8 nM.
For the compound `COc1ccc(C(=O)NCC23CC4CC(CC(C4)C2)C3)c(C(=O)N[C@@H](Cc2ccccc2F)C(=O)Nc2cc(C(=O)O)cc(C(=O)O)c2)c1` [Example 29, 1-(1S-(3,5-dicarboxyphenylamino-carbonyl)-2-(2-fluorophenyl)ethylaminocarbonyl)-2-(1-adamantane-methylaminocarbonyl)-5-methoxybenzene], the Kb in test [3] is 1580 nM. Besides, the Ki in test [2] was 15.8 nM.
